Consider one molecule from patent publication US20130197036A1, “TRANSDERMAL ABSORPTION PREPARATION” (priority 2010, published 2013).

The nature of series [1]: Octanol/water partition coefficient. The series is classed as physicochemical. The note with it: in the range of pH 3 to 9. From the text:
However, the octanol/water partition coefficient of compound A in the range of pH 3 to 9 is less than 0.05, which greatly differs from the partition coefficient (100 to 1000) of a compound generally having high membrane permeability. Compound A tends to be difficult to permeate through a membrane. Thus, it is difficult to provide a transdermal preparation comprising compound A or a salt thereof and having transdermal absorbability sufficient to exert a pharmacological effect. A transdermal preparation of compound A or a salt thereof is not known.

Series [2] deals with fungi, azole antifungal agent-resistant fungi. The note with it: Patent Document 1; cited from earlier work.

In the case of `N=C(N)c1ccc(OCCCC2CCN(CCCOc3ccc(C(=N)N)cc3)CC2)cc1` [compound A, 4-{3-[4-(3-{4-[Amino(imino)methyl]phenoxy}propyl)-1-piperidinyl]propoxy}benzamidine], the octanol/water partition coefficient result in series [1] is “less than 0.05”. In addition, the “antifungal activity (in words)” value in series [2] is “strong antifungal activity”.
